From US20190336484A1, “IL-8 INHIBITORS FOR USE IN THE TREATMENT OF SOME UROLOGICAL DISORDERS” (DOMPÉ FARMACEUTICI S.P.A., priority 2017, published 2019)

Experiments:
[1] = tested on: experimental autoimmune chronic prostatitis (EACP); test: Experimental autoimmune chronic prostatitis (EACP), mechanical allodynia by Von Frey test; format: in vivo, Lewis male rats; settings: 20 mg/kg oral twice daily
Source text: The experimental autoimmune chronic prostatitis (EACP) can be easily generated in rats by specific immunization with syngeneic rat prostate homogenate. As a consequence of the strong inflammatory reaction, pelvic pain is generated, as already described (Zhang et al, Scand J Immunol 2011, 73:546-553; Zhang et al, Prostate 2012, 72:90-99; Wang et al, Int Urol Nephrol 2015, 47:307-316; Rudick et al, Am J Physiol Regul Integr Comp Physiol 2008, 294:R1268-1275).
A total of 36 Lewis male rats (250-270 g) from Charles River Italy were used for the study, according to the regulations of the Animal Ethics Committee (IACUC n.631). The rats were maintained under standard laboratory conditions at 12:12 light/dark cycle with free access to food pellets and tap water.
Each animal was initially immunized with 2 mg of syngeneic prostate protein, diluted in saline, emulsified with complete Freund adjuvant containing 2 mg/ml of H37a mycobacterium (BD). Emulsion was produced by vortexing the mix for 15 min or till obtaining appropriate viscosity. A total volume of 0.2 mL in two sites was injected into each anesthetized rat at the dorsal tail base. A booster immunization was then repeated 13 days after the first injection. […]
Effect of pelvic pain was evaluated 16 and 26 days after immunization by testing mechanical allodynia with Von Frey test. […]

pharmacokinetic profile = settings: in vivo
Source text: In fact, as it will be illustrated in the Experimental section, Compd.

RWPE-1 cells = test: in vitro inflammatory model of prostatitis: ROS/RNS production (DCFH-DA assay) in RWPE-1 cells exposed to conditioned medium from activated U-937; format: cell-based, human; settings: then CM from activated U-937, measured after 3 hours
Source text: Characterization of Compound 1 on an in vitro inflammatory model of prostatitis.
In the aim of characterizing the Compound 1 on an in vitro inflammatory prostatitis model, human prostatic normal cells RWPE-1 (ATCC, lot number 61840713) are put in communication with activated macrophages; thus it induces an inflammatory micro-environment that enhances the production of reactive oxygen and nitrogen species (Debelec-Butuner et al, Mol. Carcinogen. 2014, 53:85-97).
Human U-937 monocytes (ATCC, lot number 61795631) seeded at 50.000 cells/ml were differentiated with phorbol acetate ([…]) for 16 h. In order to stimulate cytokines production, lipopolysaccharide (LPS) was added (10 ng/ml for 24 h) and the conditioned medium (CM) collected.
After 24 h in culture, RWPE-1 cells were treated with Compound 1 (0.1, 1 and 10 μM) and then exposed to CM from activated U-937. After 3 hours, reactive oxygen species (ROS) and Reactive Nitrogen species (RNS) were quantitatively measured by means of 2′,7′-dichlorodihydrofluorescein diacetate (DCFH-DA) assay. […] DCF is a highly fluorescent compound which can be detected by fluorescence spectroscopy with maximum excitation and emission spectra of 495 nm and 529 nm respectively (Games et al, J. Biochem. Biophys. Methods 2005, 65:45-80).

[2] = tested on: testosterone-induced prostate hypertrophy (TBPH); test: Testosterone-induced prostate hypertrophy (TBPH), cystometry / urodynamic parameters; format: in vivo, Sprague-Dawley male rats; settings: 20 mg/kg oral twice daily, 5 days a week, 4 weeks
Source text: The study was undertaken to test the effects of chronic oral administration of Compound 1 in rats with dysfunctional bladders in an experimental model of TBPH involving an estrogen-associated inflammation (Tatemichi et al, J Urol 2006, 176:1236-1241).
A total 26 Sprague-Dawley male rats (250-270 g) were used for the study, according to the regulations of the Animal Ethics Committee (IACUC n.631). The rats were maintained under standard laboratory conditions at 12:12 light/dark cycle with free access to food pellets and tap water.
BPH was induced treating animals once a week for 4 weeks with intramuscular hormones corresponding to testosterone enanthate (Geymonat, 12.5 mg)+17β-estradiol-velerate (SIGMA, 0.125 mg) in sesame oil. […]
The conscious rats were placed in metabolic cages without restraint and the bladder catheters were connected via a T-tube to a pressure transducer (P23 DC; Statham Instruments Inc., Oxnard, Calif., USA) and a microinjection pump (CMA 100; Carnegie Medicine Aft Solna, Sweden). Micturition volumes were recorded with a fluid collector connected to a force displacement transducer (FT 03 D, Grass Instrument Co., Quincy, Mass., USA). […] Pressures and micturition volumes were recorded continuously with Acq Knowledge 3.8.1 software and a MP100 data acquisition system (Biopac Syst. Inc. Santa Barbara, Calif.) connected to a Grass polygraph (Model 7E, Grass Instrument Co).

CXCR1/CXCR2 = settings: Bertini R. et al, Br J Pharmacol 2012; cited from earlier work

SMILES: C[C@H](C(=O)[O-])c1ccc(Nc2nc(C(F)(F)F)cs2)cc1.[Na+] [Compound 1, sodium salt of (2S)-2-(4-{[4-(trifluoromethyl)-1,3-thiazol-2-yl]amino}phenyl) propanoic acid]
- mechanical hypersensitivity and allodynia (abdomen/pelvic withdrawal threshold, Von Frey) ([1]; day 16 and 26 after immunization, compared to vehicle): partly decreased the mechanical hypersensitivity and allodynia reaching the statistical significance at day 26
- applied force eliciting response in Von Frey test, fold higher ([1]; vehicle group stimulated by 19 g, FIG. 3): 2,8 fold
- absorption (plasma) (pharmacokinetic profile): rapid absorption
- total ROS and RNS production induced by conditioned medium (CM) (RWPE-1 cells; Compound 1 at 1 μM): completely reverted the CM effect
- total ROS and RNS production induced by conditioned medium (CM) (RWPE-1 cells; Compound 1 at 10 μM): more modest effect in comparison to the concentration 1 μM
- post void residual volume (PVR) ([2]; FIG. 4): numerical trend in reducing
- area under pressure/time curve (AUC, detrusor over activity) ([2]; FIG. 5): numerical trend in reducing

SMILES: C[C@@H](C(=O)NS(C)(=O)=O)c1ccc(OS(=O)(=O)C(F)(F)F)cc1.[Na] [Compd.2, sodium salt of R(−)-2-[(4′-trifluoromethanesulfonyloxy)phenyl]-N-methanesulfonyl propionamide]
- CXCR1/CXCR2 inhibitor character (CXCR1/CXCR2): potent and selective dual CXCR1/CXCR2 non-competitive allosteric inhibitor
